Measurements published in the NIST ThermoML archive (doi:10.1021/acs.jced.5b00903).
Numbers after ± are expanded uncertainties.

Key:
[1] = surface light scattering
[2] = xn = mol fraction of the nth substance listed; conditions: surface light scattering

CCCCCCO [hexan-1-ol]
[1]
Conditions | surface tension liquid-gas [mN/m]
298.15 K | 25.56 ± 0.29
303.15 K | 24.95 ± 0.28
308.15 K | 24.65 ± 0.28
313.15 K | 23.93 ± 0.27
318.15 K | 23.58 ± 0.26
323.15 K | 23.21 ± 0.26

CCCO [propan-1-ol]
[1]
Conditions | surface tension liquid-gas [mN/m]
298.15 K | 23.31 ± 0.24
303.15 K | 22.9 ± 0.24
308.15 K | 22.52 ± 0.23
313.15 K | 22.1 ± 0.23
318.15 K | 21.68 ± 0.22
323.15 K | 21.27 ± 0.22

CCCCCCC [heptane]
[1]
Conditions | surface tension liquid-gas [mN/m]
293.15 K | 20.12 ± 0.23
298.15 K | 19.69 ± 0.22
303.15 K | 19.13 ± 0.21
308.15 K | 18.67 ± 0.21
313.15 K | 18.1 ± 0.2
318.15 K | 17.7 ± 0.2

CCO [ethanol]
[1]
Conditions | surface tension liquid-gas [mN/m]
288.15 K | 22.72 ± 0.23
293.15 K | 22.31 ± 0.23
298.15 K | 21.85 ± 0.23
303.15 K | 21.41 ± 0.22
308.15 K | 21.04 ± 0.22
313.15 K | 20.62 ± 0.21
318.15 K | 20.29 ± 0.21

CCCCCCCO [heptan-1-ol] + CC(C)CC(C)(C)C
surface tension liquid-gas [mN/m], [2]
Conditions | x2 = 0 | x2 = 0.1003 | x2 = 0.2002 | x2 = 0.3002 | x2 = 0.3999 | x2 = 0.5 | x2 = 0.6 | x2 = 0.6999 | x2 = 0.7999 | x2 = 0.8999
298.15 K | 26.46 ± 0.3 | 24.78 ± 0.27 | 23.26 ± 0.25 | 22.3 ± 0.24 | 21.46 ± 0.23 | 20.67 ± 0.22 | 20.04 ± 0.21 | 19.59 ± 0.2 | 19.07 ± 0.19 | 18.72 ± 0.19
303.15 K | 25.93 ± 0.29 | 24.13 ± 0.27 | 22.69 ± 0.25 | 21.74 ± 0.23 | 20.9 ± 0.22 | 20.14 ± 0.21 | 19.53 ± 0.2 | 19.1 ± 0.2 | 18.61 ± 0.19 | 18.29 ± 0.18
308.15 K | 25.43 ± 0.28 | 23.63 ± 0.26 | 22.12 ± 0.24 | 21.15 ± 0.23 | 20.32 ± 0.21 | 19.55 ± 0.2 | 18.97 ± 0.2 | 18.55 ± 0.19 | 18.08 ± 0.18 | 17.81 ± 0.18
313.15 K | 24.95 ± 0.28 | 23.15 ± 0.26 | 21.61 ± 0.23 | 20.65 ± 0.22 | 19.83 ± 0.21 | 19.08 ± 0.2 | 18.51 ± 0.19 | 18.13 ± 0.19 | 17.68 ± 0.18 | 17.45 ± 0.18
318.15 K | 24.55 ± 0.27 | 22.72 ± 0.25 | 21.11 ± 0.23 | 20.14 ± 0.22 | 19.3 ± 0.2 | 18.55 ± 0.19 | 17.97 ± 0.19 | 17.59 ± 0.18 | 17.14 ± 0.17 | 16.92 ± 0.17
323.15 K | 24.03 ± 0.27 | 22.13 ± 0.24 | 20.53 ± 0.22 | 19.6 ± 0.21 | 18.77 ± 0.2 | 18 ± 0.19 | 17.48 ± 0.18 | 17.12 ± 0.18 | 16.71 ± 0.17 | 16.53 ± 0.17

CC(C)CC(C)(C)C [2,2,4-trimethylpentane] + CCO
surface tension liquid-gas [mN/m], [2]
Conditions | x1 = 0.0429 | x1 = 0.0916 | x1 = 0.1474 | x1 = 0.2119 | x1 = 0.2874 | x1 = 0.3769 | x1 = 0.4848 | x1 = 0.6173 | x1 = 0.784 | x1 = 1
288.15 K | 22.27 ± 0.23 | 21.88 ± 0.23 | 21.47 ± 0.22 | 21.11 ± 0.22 | 20.74 ± 0.21 | 20.4 ± 0.21 | 20.03 ± 0.2 | 19.75 ± 0.2 | 19.5 ± 0.2 | 19.14 ± 0.19
298.15 K | 21.38 ± 0.22 | 20.96 ± 0.22 | 20.54 ± 0.21 | 20.17 ± 0.21 | 19.8 ± 0.2 | 19.46 ± 0.2 | 19.09 ± 0.19 | 18.83 ± 0.19 | 18.62 ± 0.19 | 18.3 ± 0.18
308.15 K | 20.54 ± 0.21 | 20.11 ± 0.21 | 19.66 ± 0.2 | 19.28 ± 0.2 | 18.9 ± 0.19 | 18.55 ± 0.19 | 18.17 ± 0.18 | 17.92 ± 0.18 | 17.73 ± 0.18 | 17.43 ± 0.18
318.15 K | 19.77 ± 0.2 | 19.31 ± 0.2 | 18.85 ± 0.19 | 18.45 ± 0.19 | 18.05 ± 0.18 | 17.7 ± 0.18 | 17.31 ± 0.18 | 17.05 ± 0.17 | 16.86 ± 0.17 | 16.56 ± 0.17

CC(C)CC(C)(C)C [2,2,4-trimethylpentane]
[1]
Conditions | surface tension liquid-gas [mN/m]
288.15 K | 19.14 ± 0.19
298.15 K | 18.3 ± 0.18
303.15 K | 17.9 ± 0.18
308.15 K | 17.43 ± 0.18
313.15 K | 17.09 ± 0.17
318.15 K | 16.56 ± 0.17
323.15 K | 16.2 ± 0.2

CCCCCO [pentan-1-ol]
[1]
Conditions | surface tension liquid-gas [mN/m]
298.15 K | 25.29 ± 0.28
303.15 K | 24.87 ± 0.28
308.15 K | 24.46 ± 0.27
313.15 K | 24.05 ± 0.27
318.15 K | 23.65 ± 0.26
323.15 K | 23.21 ± 0.26

CCCCCCO [hexan-1-ol] + CC(C)CC(C)(C)C
surface tension liquid-gas [mN/m], [2]
Conditions | x2 = 0 | x2 = 0.1001 | x2 = 0.2 | x2 = 0.3001 | x2 = 0.4 | x2 = 0.5 | x2 = 0.6001 | x2 = 0.7001 | x2 = 0.7997 | x2 = 0.8998
298.15 K | 25.56 ± 0.29 | 24.01 ± 0.26 | 22.65 ± 0.25 | 21.78 ± 0.23 | 21.03 ± 0.22 | 20.33 ± 0.21 | 19.78 ± 0.2 | 19.38 ± 0.2 | 18.95 ± 0.19 | 18.65 ± 0.19
303.15 K | 24.95 ± 0.28 | 23.31 ± 0.26 | 22.03 ± 0.24 | 21.17 ± 0.23 | 20.44 ± 0.22 | 19.76 ± 0.21 | 19.25 ± 0.2 | 18.88 ± 0.19 | 18.47 ± 0.19 | 18.22 ± 0.18
308.15 K | 24.65 ± 0.28 | 22.99 ± 0.25 | 21.62 ± 0.23 | 20.74 ± 0.22 | 19.99 ± 0.21 | 19.3 ± 0.2 | 18.77 ± 0.19 | 18.41 ± 0.19 | 18 ± 0.18 | 17.75 ± 0.18
313.15 K | 23.93 ± 0.27 | 22.3 ± 0.25 | 20.9 ± 0.23 | 20.05 ± 0.21 | 19.34 ± 0.2 | 18.69 ± 0.2 | 18.21 ± 0.19 | 17.9 ± 0.18 | 17.54 ± 0.18 | 17.37 ± 0.18
318.15 K | 23.58 ± 0.26 | 21.91 ± 0.24 | 20.45 ± 0.22 | 19.58 ± 0.21 | 18.85 ± 0.2 | 18.17 ± 0.19 | 17.69 ± 0.18 | 17.37 ± 0.18 | 17.01 ± 0.17 | 16.84 ± 0.17
323.15 K | 23.21 ± 0.26 | 21.43 ± 0.24 | 19.99 ± 0.22 | 19.11 ± 0.2 | 18.38 ± 0.19 | 17.71 ± 0.19 | 17.24 ± 0.18 | 16.94 ± 0.17 | 16.6 ± 0.17 | 16.47 ± 0.17

CCCCCCC [heptane] + CCO
surface tension liquid-gas [mN/m], [2]
Conditions | x1 = 0.0481 | x1 = 0.1018 | x1 = 0.1676 | x1 = 0.2314 | x1 = 0.3171 | x1 = 0.4111 | x1 = 0.5123 | x1 = 0.6417 | x1 = 0.7983 | x1 = 1
293.15 K | 21.78 ± 0.23 | 21.27 ± 0.22 | 20.93 ± 0.22 | 20.74 ± 0.22 | 20.53 ± 0.22 | 20.36 ± 0.22 | 20.25 ± 0.22 | 20.2 ± 0.22 | 20.17 ± 0.22 | 20.12 ± 0.23
298.15 K | 21.3 ± 0.22 | 20.77 ± 0.22 | 20.41 ± 0.21 | 20.22 ± 0.21 | 20.02 ± 0.21 | 19.85 ± 0.21 | 19.75 ± 0.21 | 19.72 ± 0.21 | 19.71 ± 0.22 | 19.69 ± 0.22
303.15 K | 20.83 ± 0.22 | 20.27 ± 0.21 | 19.89 ± 0.21 | 19.7 ± 0.21 | 19.48 ± 0.21 | 19.31 ± 0.21 | 19.2 ± 0.21 | 19.16 ± 0.21 | 19.15 ± 0.21 | 19.13 ± 0.21
308.15 K | 20.43 ± 0.21 | 19.84 ± 0.21 | 19.44 ± 0.2 | 19.24 ± 0.2 | 19.02 ± 0.2 | 18.83 ± 0.2 | 18.72 ± 0.2 | 18.69 ± 0.2 | 18.68 ± 0.21 | 18.67 ± 0.21
313.15 K | 20 ± 0.21 | 19.39 ± 0.2 | 18.98 ± 0.2 | 18.76 ± 0.2 | 18.53 ± 0.2 | 18.33 ± 0.19 | 18.2 ± 0.19 | 18.16 ± 0.2 | 18.13 ± 0.2 | 18.1 ± 0.2
318.15 K | 19.64 ± 0.2 | 19.01 ± 0.2 | 18.58 ± 0.19 | 18.36 ± 0.19 | 18.12 ± 0.19 | 17.91 ± 0.19 | 17.79 ± 0.19 | 17.75 ± 0.19 | 17.73 ± 0.19 | 17.7 ± 0.2

CCO [ethanol] + CCCCCCC
[2], x2 = 0
Conditions | surface tension liquid-gas [mN/m]
293.15 K | 22.31 ± 0.23
298.15 K | 21.85 ± 0.23
303.15 K | 21.41 ± 0.22
308.15 K | 21.04 ± 0.22
313.15 K | 20.62 ± 0.21
318.15 K | 20.29 ± 0.21

CCCCCCCO [heptan-1-ol]
[1]
Conditions | surface tension liquid-gas [mN/m]
298.15 K | 26.46 ± 0.3
303.15 K | 25.93 ± 0.29
308.15 K | 25.43 ± 0.28
313.15 K | 24.95 ± 0.28
318.15 K | 24.55 ± 0.27
323.15 K | 24.03 ± 0.27

CCO [ethanol] + CC(C)CC(C)(C)C
[2], x2 = 0
Conditions | surface tension liquid-gas [mN/m]
288.15 K | 22.72 ± 0.23
298.15 K | 21.85 ± 0.23
308.15 K | 21.04 ± 0.22
318.15 K | 20.29 ± 0.21

CC(C)CC(C)(C)C [2,2,4-trimethylpentane] + CCCCCCO
[2], x1 = 1
Conditions | surface tension liquid-gas [mN/m]
298.15 K | 18.3 ± 0.18
303.15 K | 17.9 ± 0.18
308.15 K | 17.43 ± 0.18
313.15 K | 17.09 ± 0.17
318.15 K | 16.56 ± 0.17
323.15 K | 16.2 ± 0.16
